What is called IC50 is the concentration at which inhibition is half-maximal.

For this assay, the target named is T1, human EGF-R (Homo sapiens, UniProt P00533).
T1 construct: expressed in transfected cells
T1 sequence (P00533 25-1210): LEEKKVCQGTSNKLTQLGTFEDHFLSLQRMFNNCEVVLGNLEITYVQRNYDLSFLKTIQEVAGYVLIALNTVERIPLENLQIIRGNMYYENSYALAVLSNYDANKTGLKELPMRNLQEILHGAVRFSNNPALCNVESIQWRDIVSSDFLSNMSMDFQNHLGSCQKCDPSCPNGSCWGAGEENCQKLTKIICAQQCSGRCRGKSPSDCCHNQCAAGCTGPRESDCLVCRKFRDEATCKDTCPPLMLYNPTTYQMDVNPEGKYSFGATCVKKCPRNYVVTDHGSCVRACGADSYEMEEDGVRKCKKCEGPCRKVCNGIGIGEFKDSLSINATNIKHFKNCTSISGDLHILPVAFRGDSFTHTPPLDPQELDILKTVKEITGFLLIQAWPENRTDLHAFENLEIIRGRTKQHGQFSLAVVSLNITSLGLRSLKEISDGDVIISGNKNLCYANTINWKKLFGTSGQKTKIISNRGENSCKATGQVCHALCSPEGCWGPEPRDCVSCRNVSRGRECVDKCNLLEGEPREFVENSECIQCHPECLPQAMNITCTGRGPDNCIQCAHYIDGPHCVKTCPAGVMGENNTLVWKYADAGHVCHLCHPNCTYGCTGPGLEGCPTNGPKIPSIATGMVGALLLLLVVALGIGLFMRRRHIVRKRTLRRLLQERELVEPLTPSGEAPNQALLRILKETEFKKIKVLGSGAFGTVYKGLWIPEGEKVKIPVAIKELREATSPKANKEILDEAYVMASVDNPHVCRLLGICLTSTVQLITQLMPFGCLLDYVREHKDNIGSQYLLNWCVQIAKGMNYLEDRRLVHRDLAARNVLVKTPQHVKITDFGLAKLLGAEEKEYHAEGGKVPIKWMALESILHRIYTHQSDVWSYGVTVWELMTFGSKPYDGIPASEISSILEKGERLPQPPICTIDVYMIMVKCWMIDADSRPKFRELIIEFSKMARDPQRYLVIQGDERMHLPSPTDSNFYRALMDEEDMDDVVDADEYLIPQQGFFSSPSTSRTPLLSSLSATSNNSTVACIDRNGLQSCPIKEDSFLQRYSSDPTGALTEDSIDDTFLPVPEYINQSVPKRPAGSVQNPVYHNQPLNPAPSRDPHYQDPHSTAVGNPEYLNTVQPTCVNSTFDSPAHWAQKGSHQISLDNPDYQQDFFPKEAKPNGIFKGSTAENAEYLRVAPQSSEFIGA
Nature of the assay: Inhibition of the EGFR-dependent proliferation of a murine haematopoietic cell line expressing human EGF-R, stimulated with EGF. The assay is classed as cell-based. Conditions: 20 ng/ml human EGF, 48 hours at 37° C., Cell Titer 96 AQueous assay. Here is the method: A murine haematopoietic cell line is genetically modified so as to express functional human EGF-R. The proliferation of this cell line can therefore be stimulated by EGF.
The test is carried out as follows:
The cells are cultivated in RPMI/1640 medium. The proliferation is stimulated with 20 ng/ml of human EGF (Promega). To investigate the inhibitory activity of the compounds according to the invention these compounds are dissolved in 100% dimethylsulphoxide (DMSO) and added to the cultures in various dilutions, the maximum DMSO concentration being 1%. The cultures are incubated for 48 hours at 37° C.
In order to determine the inhibitory activity of the compounds according to the invention the relative cell number is measured in O.D. Units using the Cell Titer 96™ AQueous Non-Radioactive Cell Proliferation Assay (Promega). The relative cell number is calculated as a percentage of the control and the concentration of active substance which inhibits the proliferation of the cells by 50% (IC50) is derived therefrom.
As to `COc1cc2ncnc(Nc3cccc(Cl)c3F)c2cc1OC1CCC([C@H]2C(=O)N(C)CCN2C)CC1` (mixture of isomers) [1(3), cis/trans-(S)-3-{4-[4-(3-chloro-2-fluoro-phenylamino)-7-methoxy-quinazolin-6-yloxy]-cyclohexyl}-1,4-dimethyl-piperazin-2-one], 1 nM corresponded to half-maximal inhibition (IC50). Next, `COc1cc2ncnc(Nc3cccc(Cl)c3F)c2cc1OC1CCC([C@H]2C(=O)NCCN2C)CC1` (mixture of isomers) [Example 1, cis/trans-(S)-3-{-4-[4-(3-chloro-2-fluoro-phenylamino)-7-methoxy-quinazolin-6-yloxy]-cyclohexyl}-4-methyl-piperazin-2-one]: 1 nM; `COc1cc2ncnc(Nc3cccc(Cl)c3F)c2cc1O[C@H]1CC[C@@H]([C@@H]2NCCNC2=O)CC1` [1(1a), cis-(S)-3-{4-[4-(3-chloro-2-fluoro-phenylamino)-7-methoxy-quinazolin-6-yloxy]-cyclohexyl}-piperazin-2-one]: 10 nM; `COc1cc2ncnc(Nc3cccc(Cl)c3F)c2cc1O[C@H]1CC[C@H]([C@@H]2NCCNC2=O)CC1` [1(1b), trans-(S)-3-{4-[4-(3-chloro-2-fluoro-phenylamino)-7-methoxy-quinazolin-6-yloxy]-cyclohexyl}-piperazin-2-one]: 1.4 nM.

With `COc1cc2ncnc(Nc3cccc(Cl)c3F)c2cc1O[C@H]1CC[C@H]([C@@H]2NCCN(C)C2=O)CC1` [1(2), trans-(S)-3-{4-[4-(3-chloro-2-fluoro-phenylamino)-7-methoxy-quinazolin-6-yloxy]-cyclohexyl}-1-methyl-piperazin-2-one], the IC50 came to 1 nM. In the case of `COc1cc2ncnc(Nc3cccc(Cl)c3F)c2cc1O[C@H]1CC[C@@H]([C@H]2NCCNC2=O)CC1` [1(4), cis-(R)-3-{4-[4-(3-chloro-2-fluoro-phenylamino)-7-methoxy-quinazolin-6-yloxy]-cyclohexyl}-piperazin-2-one] it was 12.5 nM; in that of `COc1cc2ncnc(Nc3cccc(Cl)c3F)c2cc1O[C@H]1CC[C@H]([C@H]2NCCNC2=O)CC1` [1(5), trans-(R)-3-{4-[4-(3-chloro-2-fluoro-phenylamino)-7-methoxy-quinazolin-6-yloxy]-cyclohexyl}-piperazin-2-one], 1.6 nM.

These data come from US8648191B2, “Cyclohexyloxy substituted heterocycles, pharmaceutical compositions containing these compounds and processes for preparing them” (Boehringer Ingelheim International GmbH, priority 2008, dated 2014).
